The values that follow come from patent US8685976B2, “Cell adhesion promoting agent and method of promoting cell adhesion” (Kyoto University, priority 2008, dated 2014).

In one assay the test system is Jurkat cells. As to the kind of experiment: Enzymatic treatment of cells, cell adhesion, Jurkat. In kind it is cell-based, human. The following applies: heparinases 0.02 units/mL, chondroitinase ABC 0.1 units/mL. On the procedure:
(§1) In (A) and (B), Jurkat cells (A) or HepG2 cells (B) were pretreated with 0.02 units/mL of heparinase, heparitinase I, and heparitinase II, or 0.1 units/mL of protease-free chondroitinase ABC in a serum-free culture medium for 1 hour at 37° C. before evaluating cell adhesion. The treated cells were seeded onto adhesamine-added or fibronectin-coated plastic wells. The attached cells were counted at 5 hours after seeding. The concentrations of adhesamine and fibronectin were 6 μM and 5 μg/mL, respectively. Each point represents the means±SD. (C) and (D) show localization of Compound 4 in HepG2 cells treated with heparinase/heparitinase I/heparitinase II (C) or chondroitinase ABC (D).
Jurkat cells (5×10^4) were cultured in 100 μL of RPMI and treated with a combination of heparinase, heparitinase I, and heparitinase II (0.02 units/mL) or chondroitinase ABC (0.1 units/mL) for 30 min at room temperature. The ability of the treated cells to respond to adhesamine was evaluated by counting the cells that were attached to plastic wells of a 96-well plate in the presence of adhesamine (6 μM).

The test system of a further assay is HepG2 cells. As to the kind of experiment: Enzymatic treatment of cells, cell adhesion, HepG2. In kind it is cell-based. The following applies: heparinases 0.02 units/mL, chondroitinase ABC 0.1 units/mL. The procedure: as §1
The effects of these GAG-degrading enzymes on the intact or adhesamine-enhanced attachment of HepG2 cells were examined. […] As observed in Jurkat cells, adhesamine-induced cell adhesion was canceled by heparan sulfate-degrading enzymes, but not by chondroitinase ABC (FIG. 9B).

chondroitinase ABC: the “effect on adhesamine-induced cell attachment” value in the assay on Jurkat cells is listed as “no detectable effects”. Besides, the “inhibition of intact attachment of HepG2 cells” value with HepG2 cells is 7%.
